Assay in all cases: relative viability (nuclei count vs DMSO), 5 days (fraction); higher = more cells survive
Compound in one experiment: C1CN(CCN1)C2=CC=C(C=C2)C3=CN4C(=C(C=N4)C5=CC=NC6=CC=CC=C56)N=C3 [DM3189]
An outline of the steps:
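Cells of lung cancer lines were placed in 1536-well plates and kept overnight at 37 °C. Pinning then delivered five library-drug doses (not always all listed), spaced by √10, onto plates anchored with vehicle, and the cells were left 5 days without changing medium. One step fixed, permeabilised and stained them with Hoechst, and MetaXpress counted nuclei in 4× images. Viability, as a median over plates, is treated-well nuclei divided by vehicle-well nuclei, with acceptance only at control CV below 25% and at least one doubling.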

Compound in the experiment “DM3189 + Trametinib”: C1CN(CCN1)C2=CC=C(C=C2)C3=CN4C(=C(C=N4)C5=CC=NC6=CC=CC=C56)N=C3 [DM3189] + CC(=O)Nc1cccc(-n2c(=O)n(C3CC3)c(=O)c3c(Nc4ccc(I)cc4F)n(C)c(=O)c(C)c32)c1 [Trametinib] (partner 0.02 µM)
In a few lines:
(§1)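 Relative viability is defined as nuclei in treated wells over nuclei in vehicle wells. Duplicate plates were run and medians reported. Lung cancer cell lines in 1536-well plates were dosed by pin tool one day after seeding, with one drug or with a fixed anchor-drug dose plus five library-drug doses (not always all listed) in √10 steps, and nuclei were counted after 5 days.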

Compound in the experiment “DM3189 + Lapatinib”: C1CN(CCN1)C2=CC=C(C=C2)C3=CN4C(=C(C=N4)C5=CC=NC6=CC=CC=C56)N=C3 [DM3189] + CS(=O)(=O)CCNCc1ccc(-c2ccc3ncnc(Nc4ccc(OCc5cccc(F)c5)c(Cl)c4)c3c2)o1 [Lapatinib] (partner 2 µM)
An outline of the steps: as §1

Compound in the experiment “DM3189 + AZD7762”: C1CN(CCN1)C2=CC=C(C=C2)C3=CN4C(=C(C=N4)C5=CC=NC6=CC=CC=C56)N=C3 [DM3189] + NC(=O)Nc1cc(-c2cccc(F)c2)sc1C(=O)N[C@H]1CCCNC1 [AZD7762] (partner 0.2 µM)
In a few lines:
as §1

Compound in the experiment “DM3189 + Vorinostat”: C1CN(CCN1)C2=CC=C(C=C2)C3=CN4C(=C(C=N4)C5=CC=NC6=CC=CC=C56)N=C3 [DM3189] + O=C(CCCCCCC(=O)Nc1ccccc1)NO [Vorinostat] (partner 1 µM)
An outline of the steps:
as §1

As to NCI-H838, the relative viability with DM3189 (0.08 µM) is 0.978; in the experiment with DM3189 (0.253 µM), 0.909; with DM3189 (0.8 µM) it was 0.764; with DM3189 (2.53 µM), 0.922; with DM3189 + Trametinib (first compound 0.08 µM), 0.57; with DM3189 + Trametinib (first compound 0.253 µM) it was 0.454. The relative viability was found to be 0.388 in the experiment with DM3189 + Trametinib (first compound 0.8 µM); 0.496 with DM3189 + Trametinib (first compound 2.53 µM); 1.1 in the experiment with DM3189 + Lapatinib (first compound 0.08 µM); 0.867 with DM3189 + Lapatinib (first compound 0.253 µM); 0.65 with DM3189 + Lapatinib (first compound 0.8 µM); 0.897 with DM3189 + Lapatinib (first compound 2.53 µM). Also, the relative viability with DM3189 + AZD7762 (first compound 0.08 µM) is 0.979; in the experiment with DM3189 + AZD7762 (first compound 0.253 µM) it was 0.856; in the experiment with DM3189 + AZD7762 (first compound 0.8 µM), 0.816; with DM3189 + AZD7762 (first compound 2.53 µM), 0.895; in the experiment with DM3189 + Vorinostat (first compound 0.08 µM) it was 0.757; with DM3189 + Vorinostat (first compound 0.253 µM), 0.675. Besides, the relative viability with DM3189 + Vorinostat (first compound 0.8 µM) was 0.65; in the experiment with DM3189 + Vorinostat (first compound 2.53 µM) it was 0.733.

NCI-H1437: the relative viability with DM3189 (0.08 µM) came out at 1.05; with DM3189 (0.253 µM) it was 0.995; in the experiment with DM3189 (0.8 µM) it was 0.989; with DM3189 (2.53 µM), 1; in the experiment with DM3189 + Trametinib (first compound 0.08 µM), 0.63; with DM3189 + Trametinib (first compound 0.253 µM), 0.577. In addition, the relative viability amounted to 0.65 with DM3189 + Trametinib (first compound 0.8 µM); 0.696 in the experiment with DM3189 + Trametinib (first compound 2.53 µM); 0.793 with DM3189 + Lapatinib (first compound 0.08 µM); 0.767 in the experiment with DM3189 + Lapatinib (first compound 0.253 µM); 0.765 with DM3189 + Lapatinib (first compound 0.8 µM); 0.852 in the experiment with DM3189 + Lapatinib (first compound 2.53 µM). Besides, the relative viability is 1.14 in the experiment with DM3189 + AZD7762 (first compound 0.08 µM); 1.15 in the experiment with DM3189 + AZD7762 (first compound 0.253 µM); 0.969 with DM3189 + AZD7762 (first compound 0.8 µM); 1 with DM3189 + AZD7762 (first compound 2.53 µM); 0.917 with DM3189 + Vorinostat (first compound 0.08 µM); 0.916 with DM3189 + Vorinostat (first compound 0.253 µM). Besides, the figures for the relative viability in the experiment with DM3189 + Vorinostat (first compound 0.8 µM) and with DM3189 + Vorinostat (first compound 2.53 µM) were 0.843 and 1.05, respectively.

As for HCC-44, the relative viability was 1.05 with DM3189 (0.08 µM); 0.957 in the experiment with DM3189 (0.253 µM); 0.869 with DM3189 (0.8 µM); 0.934 with DM3189 (2.53 µM); 1.07 with DM3189 + Trametinib (first compound 0.08 µM); 1.09 with DM3189 + Trametinib (first compound 0.253 µM). The relative viability with DM3189 + Trametinib (first compound 0.8 µM) was 0.897; in the experiment with DM3189 + Trametinib (first compound 2.53 µM), 1.2; in the experiment with DM3189 + Lapatinib (first compound 0.08 µM), 1.13; in the experiment with DM3189 + Lapatinib (first compound 0.253 µM), 0.743; in the experiment with DM3189 + Lapatinib (first compound 0.8 µM), 0.792; in the experiment with DM3189 + Lapatinib (first compound 2.53 µM) it was 1.02. The relative viability with DM3189 + AZD7762 (first compound 0.08 µM) came out at 0.984; with DM3189 + AZD7762 (first compound 0.253 µM), 1.03; in the experiment with DM3189 + AZD7762 (first compound 0.8 µM) it was 0.92; with DM3189 + AZD7762 (first compound 2.53 µM), 0.996; in the experiment with DM3189 + Vorinostat (first compound 0.08 µM), 1.08; with DM3189 + Vorinostat (first compound 0.253 µM), 1.14. The relative viability with DM3189 + Vorinostat (first compound 0.8 µM) is 0.921; in the experiment with DM3189 + Vorinostat (first compound 2.53 µM), 1.08.

Regarding EPLC-272H, the relative viability with DM3189 (0.08 µM) came to 0.975; with DM3189 (0.253 µM) it was 0.823; with DM3189 (0.8 µM) it was 0.917; with DM3189 (2.53 µM), 0.896; in the experiment with DM3189 + Trametinib (first compound 0.08 µM) it was 0.285; in the experiment with DM3189 + Trametinib (first compound 0.253 µM), 0.326. The relative viability in the experiment with DM3189 + Trametinib (first compound 0.8 µM) worked out at 0.267; with DM3189 + Trametinib (first compound 2.53 µM), 0.322; with DM3189 + Lapatinib (first compound 0.08 µM), 1.1; with DM3189 + Lapatinib (first compound 0.253 µM) it was 0.842; with DM3189 + Lapatinib (first compound 0.8 µM), 0.933; in the experiment with DM3189 + Lapatinib (first compound 2.53 µM) it was 0.762. Also, the relative viability with DM3189 + AZD7762 (first compound 0.08 µM) was found to be 0.174; with DM3189 + AZD7762 (first compound 0.253 µM) it was 0.219; with DM3189 + AZD7762 (first compound 0.8 µM), 0.276; with DM3189 + AZD7762 (first compound 2.53 µM), 0.186; with DM3189 + Vorinostat (first compound 0.08 µM), 0.386; in the experiment with DM3189 + Vorinostat (first compound 0.253 µM) it was 0.517. The figures for the relative viability with DM3189 + Vorinostat (first compound 0.8 µM) and with DM3189 + Vorinostat (first compound 2.53 µM) were 0.247 and 0.402, respectively.

On to NCI-H358, for which the relative viability in the experiment with DM3189 (0.08 µM) amounted to 1.01; in the experiment with DM3189 (0.253 µM), 0.869; with DM3189 (0.8 µM) it was 0.843; in the experiment with DM3189 (2.53 µM) it was 0.913; in the experiment with DM3189 + Trametinib (first compound 0.08 µM) it was 0.133; in the experiment with DM3189 + Trametinib (first compound 0.253 µM), 0.111. For the same cell line, the relative viability was found to be 0.129 with DM3189 + Trametinib (first compound 0.8 µM); 0.129 with DM3189 + Trametinib (first compound 2.53 µM); 0.489 in the experiment with DM3189 + Lapatinib (first compound 0.08 µM); 0.359 with DM3189 + Lapatinib (first compound 0.253 µM); 0.523 with DM3189 + Lapatinib (first compound 0.8 µM); 0.424 with DM3189 + Lapatinib (first compound 2.53 µM). Besides, the relative viability in the experiment with DM3189 + AZD7762 (first compound 0.08 µM) stood at 0.5; with DM3189 + AZD7762 (first compound 0.253 µM) it was 0.502; with DM3189 + AZD7762 (first compound 0.8 µM), 0.517; with DM3189 + AZD7762 (first compound 2.53 µM), 0.444; with DM3189 + Vorinostat (first compound 0.08 µM), 0.746; in the experiment with DM3189 + Vorinostat (first compound 0.253 µM), 0.585. Further, the relative viability with DM3189 + Vorinostat (first compound 0.8 µM) was found to be 0.628; in the experiment with DM3189 + Vorinostat (first compound 2.53 µM) it was 0.595.

For NCI-H647, the relative viability with DM3189 (0.08 µM) worked out at 0.954; in the experiment with DM3189 (0.253 µM) it was 0.824; in the experiment with DM3189 (0.8 µM) it was 0.734; in the experiment with DM3189 (2.53 µM) it was 0.794; in the experiment with DM3189 + Trametinib (first compound 0.08 µM), 0.488; with DM3189 + Trametinib (first compound 0.253 µM), 0.399. Further, the relative viability in the experiment with DM3189 + Trametinib (first compound 0.8 µM) is 0.378; with DM3189 + Trametinib (first compound 2.53 µM) it was 0.412; with DM3189 + Lapatinib (first compound 0.08 µM) it was 1.36; in the experiment with DM3189 + Lapatinib (first compound 0.253 µM), 0.823; with DM3189 + Lapatinib (first compound 0.8 µM) it was 0.622; with DM3189 + Lapatinib (first compound 2.53 µM), 0.463. Besides, the relative viability in the experiment with DM3189 + AZD7762 (first compound 0.08 µM) is 0.626; in the experiment with DM3189 + AZD7762 (first compound 0.253 µM), 0.408; with DM3189 + AZD7762 (first compound 0.8 µM), 0.4; with DM3189 + AZD7762 (first compound 2.53 µM), 0.277; with DM3189 + Vorinostat (first compound 0.08 µM) it was 0.624; with DM3189 + Vorinostat (first compound 0.253 µM) it was 0.531. In addition, the figures for the relative viability with DM3189 + Vorinostat (first compound 0.8 µM) and in the experiment with DM3189 + Vorinostat (first compound 2.53 µM) were 0.562 and 0.343, respectively.

These data come from the supplement of paper PMC10307832.
